From publication PMC2156146 (The Journal of Cell Biology, 1999)

Target: T1, SRβ (30-kD β-subunit of the SRP receptor) in SR liposomes (Canis lupus, UniProt A0A8I3Q3L6)
T1 sequence (A0A8I3Q3L6 1-271): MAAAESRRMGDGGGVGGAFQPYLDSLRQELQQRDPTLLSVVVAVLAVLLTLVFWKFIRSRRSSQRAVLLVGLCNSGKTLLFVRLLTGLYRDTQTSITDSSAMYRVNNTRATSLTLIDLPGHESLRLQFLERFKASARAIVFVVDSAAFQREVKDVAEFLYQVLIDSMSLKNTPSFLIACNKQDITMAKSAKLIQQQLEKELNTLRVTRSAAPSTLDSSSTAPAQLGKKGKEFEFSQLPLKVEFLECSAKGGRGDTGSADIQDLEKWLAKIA
T1 sequence (P06625 1-638 partner): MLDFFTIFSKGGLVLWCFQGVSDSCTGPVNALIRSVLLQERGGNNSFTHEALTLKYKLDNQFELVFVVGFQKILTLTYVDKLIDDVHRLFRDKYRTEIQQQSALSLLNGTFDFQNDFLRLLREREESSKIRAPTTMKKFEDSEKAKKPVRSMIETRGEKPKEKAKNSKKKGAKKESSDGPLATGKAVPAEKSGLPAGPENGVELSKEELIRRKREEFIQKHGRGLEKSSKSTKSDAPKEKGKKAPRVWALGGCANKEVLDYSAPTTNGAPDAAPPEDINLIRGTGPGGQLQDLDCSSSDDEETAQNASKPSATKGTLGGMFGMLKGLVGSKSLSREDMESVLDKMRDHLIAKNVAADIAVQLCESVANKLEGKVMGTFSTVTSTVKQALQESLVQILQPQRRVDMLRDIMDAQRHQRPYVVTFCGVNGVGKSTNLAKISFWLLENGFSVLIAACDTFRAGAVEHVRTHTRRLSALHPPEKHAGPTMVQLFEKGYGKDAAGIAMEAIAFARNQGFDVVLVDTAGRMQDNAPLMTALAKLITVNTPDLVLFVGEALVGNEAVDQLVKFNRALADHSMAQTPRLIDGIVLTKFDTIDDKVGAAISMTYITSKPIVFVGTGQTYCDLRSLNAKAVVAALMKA
Experiment: UV cross-linking of alpha-[…]GTP, saturation, SDS-PAGE and PhosphorImaging
Format: binding

For `Nc1nc2c(ncn2[C@@H]2O[C@H](COP(=O)(O)OP(=O)(O)OP(=O)(O)O)[C@@H](O)[C@H]2O)c(=O)[nH]1` [GTP], the Kd was 20 nM.
